# Measured values from patent US6303626A, “Pharmaceutical formulations in dry form for the oral administration of a cyclic quaternary ammonium compound” (Sanofi-Synthelabo, priority 1997, dated 2001).
# Where two headings read alike, the source gives them in different places.
# What was measured:
# [1] = Solubility in different media / solvents; type: physicochemical; conditions: dmso, organic solvent or mixture; read-out: Solubility in dimethyl sulfoxide (DMSO)
# [2] = Solubility of compound A in water at the saturation point, 24 h, room temperature, UV spectrometry; type: physicochemical; conditions: for solubility at 24 h: water, room temperature, read-out: Concentration of compound A (solubility in water at saturation)
# Description: 1. Solubility of Compound A
# Caco-2 cells = type: in vitro ADME; conditions: polysorbate 80 added to a solution of compound A in the cell culture medium
# Description: This line is conventionally used for evaluating the ability of compounds to permeate the epithelium (Crit. Rev. Ther. Drug Carrier System. 1991, 8 (4), 105-330).
# 2. Evaluation of the Intestinal Transepithelial Passage of Compound A
# Caco-2 cells are inoculated onto microporous polycarbonate filters covered with collagen. The cellular monolayer formed on the filter then makes it possible to separate an apical compartment (imitating the intestinal lumen) from a basal compartment (imitating the blood circulation).
# The composition containing the compound to be studied is then placed on the apical side and the passage of this compound, dispersed or solubilized in Hank's medium, through this cellular barrier is evaluated by measuring the kinetics of its appearance on the basal side. This aqueous medium, of pH 6.5, has the following composition: NaCl=8.0 g/l; KCl=0.4 g/l; CaCl2 =0.19 g/l; MgCl2 =0.1 g/l; MgSO4 =0.1 g/l; Na2 HPO4 =0.09 g/l; KH2 PO4 =0.06 g/l; NaHCO3 =0.35 g/l; glucose=1 g/l; phenol red=0.01 g/l. […]
# Various non-ionic surfactants or agents said to improve absorption, such as a C8 -C10 fatty acid or one of its derivatives, were added to the formulation described above, placed in Hank's medium, and the relative rate of intestinal transepithelial passage of compound A in these formulations was measured.
# in vivo = conditions: rat, 0.6% aqueous solution of compound A in methyl cellulose, read-out: Estimated absorption
# Description: In this model, the permeability to compound A dissolved in dimethyl sulfoxide (DMSO) is 3.4.10^-7 cm/s. Furthermore, studies performed on the rat with a 0.6% aqueous solution of compound A in methyl cellulose have shown that its estimated absorption is less than 1%.
structure (smiles),measurement,setting,value
"CC(C)Oc1cccc(CC(=O)N2CCC[C@](CC[N+]34CCC(c5ccccc5)(CC3)CC4)(c3ccc(Cl)c(Cl)c3)C2)c1 [compound A, (S)-1-{2-[3-(3,4-dichlorophenyl)-1-(3-iso-propoxyphenylacetyl)piperidin-3-yl]ethyl}-4-phenyl-1-azoniabicyclo[2.2.2]octane]",solubility,[1],168000 µg/mL
same,"Solubility in water, dependence on pH",[2]; pH 1 to 9,low and not dependent on the pH
same,solubility at 24 h,[2]; pH 1,310 µg/mL
same,solubility at 24 h,[2]; pH 3,310 µg/mL
same,solubility at 24 h,[2]; pH 5,310 µg/mL
same,solubility at 24 h,[2]; pH 7,290 µg/mL
same,solubility at 24 h,[2]; pH 9,310 µg/mL
same,Effect of addition of polysorbate 80 on transepithelial passage,Caco-2 cells,substantially improves the transepithelial passage
same,Fa,in vivo,< 1%
